One experiment has as its target T1, EED (1-441)-His protein (Homo sapiens, UniProt O75530).
T1 construct: 30 nM EED (1-441)-His protein
Put plainly: EED-H3K27Me3 peptide competition binding assay by AlphaScreen. As to conditions: EED-H3K27Me3 peptide competition, AlphaScreen; read-out: (a) IC50 EED Alphascreen binding Qualified. In short, it runs like this:
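Serially diluted compound (12 points, 3-fold) incubated 20 min with 30 nM EED(1-441)-His and 15 nM biotin-H3K27Me3(19-33) peptide in 25 mM HEPES pH 8, 0.02% Tween-20, 0.5% BSA. Ni-chelate acceptor/streptavidin donor beads (10 μg/mL each) added, 1 h rt dark; 615 nm emission normalized to controls, dose-response fit for IC50.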
In general terms: Alpha assays give light when donor and acceptor beads are brought close together.

The target of experiment [1] is wild type PRC2 (wtPRC2) complex (Homo sapiens, UniProt O75530). Put plainly: EED LC-MS assay (SAH production by PRC2). The experiment is classed as biochemical. Conditions: PRC2 LC-MS assay; read-out: (b) IC50 EED LC-MS Qualified. In short, it runs like this: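 LC-MS/MS readout of SAH (d4-SAH standard) after TFA quench gives PRC2 activity, normalized to controls and fitted to dose-response for IC50. Reaction: 12 nM EZH2/SUZ12/EED/Rbap48/AEBP complex, 1 μM SAM, 1.5 μM H3[21-44] peptide, 120 min rt, 20 min compound preincubation.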
wild type PRC2 (wtPRC2) complex, sequence (O75530 whole entry): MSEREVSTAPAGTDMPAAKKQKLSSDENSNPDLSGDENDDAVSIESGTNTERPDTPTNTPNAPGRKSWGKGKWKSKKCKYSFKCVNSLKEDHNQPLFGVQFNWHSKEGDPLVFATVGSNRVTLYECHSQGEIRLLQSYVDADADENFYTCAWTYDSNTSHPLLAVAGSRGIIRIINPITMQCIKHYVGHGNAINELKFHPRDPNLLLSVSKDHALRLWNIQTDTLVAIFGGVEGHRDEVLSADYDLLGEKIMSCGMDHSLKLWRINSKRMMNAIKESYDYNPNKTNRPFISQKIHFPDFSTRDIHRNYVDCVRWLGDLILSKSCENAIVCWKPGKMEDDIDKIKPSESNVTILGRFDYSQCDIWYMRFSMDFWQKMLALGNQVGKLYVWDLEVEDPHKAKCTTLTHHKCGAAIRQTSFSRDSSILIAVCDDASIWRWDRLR
wild type PRC2 (wtPRC2) complex, sequence (Q15910 whole entry partner): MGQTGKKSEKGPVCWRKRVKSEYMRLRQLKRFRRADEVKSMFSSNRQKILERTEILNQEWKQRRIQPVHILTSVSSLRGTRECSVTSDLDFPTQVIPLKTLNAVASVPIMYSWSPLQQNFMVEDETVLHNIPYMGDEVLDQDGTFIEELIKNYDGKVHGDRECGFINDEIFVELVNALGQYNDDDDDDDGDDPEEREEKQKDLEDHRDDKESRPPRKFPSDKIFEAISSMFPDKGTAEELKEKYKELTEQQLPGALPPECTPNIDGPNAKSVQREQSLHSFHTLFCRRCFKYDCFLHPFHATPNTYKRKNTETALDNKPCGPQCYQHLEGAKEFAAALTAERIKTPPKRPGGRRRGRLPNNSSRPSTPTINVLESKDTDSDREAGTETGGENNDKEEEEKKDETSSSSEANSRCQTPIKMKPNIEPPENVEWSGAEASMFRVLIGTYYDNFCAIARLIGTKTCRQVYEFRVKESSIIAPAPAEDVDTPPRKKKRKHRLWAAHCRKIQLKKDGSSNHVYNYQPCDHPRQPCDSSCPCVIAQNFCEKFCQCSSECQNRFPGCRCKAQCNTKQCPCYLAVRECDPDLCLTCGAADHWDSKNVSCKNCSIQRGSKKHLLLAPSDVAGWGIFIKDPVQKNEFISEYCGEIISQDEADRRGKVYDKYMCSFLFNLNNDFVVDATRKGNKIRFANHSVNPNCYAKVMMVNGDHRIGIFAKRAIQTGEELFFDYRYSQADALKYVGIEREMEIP
wild type PRC2 (wtPRC2) complex, sequence (Q15022 whole entry partner): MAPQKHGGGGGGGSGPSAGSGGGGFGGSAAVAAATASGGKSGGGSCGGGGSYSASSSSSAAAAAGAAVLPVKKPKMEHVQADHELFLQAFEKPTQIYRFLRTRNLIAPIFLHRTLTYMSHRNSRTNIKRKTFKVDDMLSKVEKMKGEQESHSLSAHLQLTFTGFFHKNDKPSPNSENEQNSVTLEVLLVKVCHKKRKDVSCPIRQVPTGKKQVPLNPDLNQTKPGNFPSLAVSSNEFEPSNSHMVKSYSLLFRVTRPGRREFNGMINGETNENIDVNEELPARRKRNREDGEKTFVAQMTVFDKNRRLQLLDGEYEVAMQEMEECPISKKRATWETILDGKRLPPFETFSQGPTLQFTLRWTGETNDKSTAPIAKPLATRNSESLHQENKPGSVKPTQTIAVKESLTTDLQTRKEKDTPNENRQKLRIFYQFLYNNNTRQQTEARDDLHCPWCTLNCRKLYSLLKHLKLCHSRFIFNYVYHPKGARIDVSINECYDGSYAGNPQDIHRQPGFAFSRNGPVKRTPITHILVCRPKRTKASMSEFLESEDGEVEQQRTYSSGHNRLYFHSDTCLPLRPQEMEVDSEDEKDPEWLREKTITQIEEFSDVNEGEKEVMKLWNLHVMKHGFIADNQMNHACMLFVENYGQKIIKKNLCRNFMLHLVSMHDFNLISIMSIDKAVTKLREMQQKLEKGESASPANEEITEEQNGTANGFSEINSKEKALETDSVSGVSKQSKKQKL
wild type PRC2 (wtPRC2) complex, sequence (Q09028 whole entry partner): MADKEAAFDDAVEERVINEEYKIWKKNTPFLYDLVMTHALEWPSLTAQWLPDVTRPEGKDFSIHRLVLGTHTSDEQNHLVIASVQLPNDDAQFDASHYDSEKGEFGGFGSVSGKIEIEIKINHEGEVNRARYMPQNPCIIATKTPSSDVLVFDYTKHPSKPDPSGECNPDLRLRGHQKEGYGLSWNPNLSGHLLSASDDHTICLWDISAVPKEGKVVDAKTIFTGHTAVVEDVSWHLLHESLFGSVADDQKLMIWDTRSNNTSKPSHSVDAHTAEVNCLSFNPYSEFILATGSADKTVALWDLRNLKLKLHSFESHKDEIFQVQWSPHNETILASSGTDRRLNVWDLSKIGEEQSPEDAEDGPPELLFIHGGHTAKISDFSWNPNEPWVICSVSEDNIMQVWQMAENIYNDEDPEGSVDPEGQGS
wild type PRC2 (wtPRC2) complex, sequence (Q6ZN18 whole entry partner): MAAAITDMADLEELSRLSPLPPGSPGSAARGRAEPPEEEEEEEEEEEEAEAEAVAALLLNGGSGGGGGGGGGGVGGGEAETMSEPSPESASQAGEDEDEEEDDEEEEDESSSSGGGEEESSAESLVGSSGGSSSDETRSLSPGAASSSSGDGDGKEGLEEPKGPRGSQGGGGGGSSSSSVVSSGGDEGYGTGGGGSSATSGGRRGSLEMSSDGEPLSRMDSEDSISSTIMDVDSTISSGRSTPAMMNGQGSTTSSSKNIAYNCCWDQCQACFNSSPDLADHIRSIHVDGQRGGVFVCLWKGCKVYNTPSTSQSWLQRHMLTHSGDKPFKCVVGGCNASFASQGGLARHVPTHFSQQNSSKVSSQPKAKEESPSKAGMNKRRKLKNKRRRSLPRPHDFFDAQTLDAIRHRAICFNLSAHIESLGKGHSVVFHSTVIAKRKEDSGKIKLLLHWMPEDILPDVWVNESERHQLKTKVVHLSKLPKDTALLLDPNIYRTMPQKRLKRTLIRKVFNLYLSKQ

Experiment [2] relates to H3K27 methylation in G401 cell. Nature of the experiment: ELISA (H3K27 methylation) assay in G401 cells. The experiment is classed as cell-based, human. As to conditions: Homo sapiens, G-401, H3K27 methylation ELISA, read-out: (c) IC50 ELISA Qualified. In short, it runs like this: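 IC50 from dose-response fit of percent inhibition relative to DMSO, using H3K27me3/me2 ELISA signal (ECL) normalized to histone H3. Histones HCl-extracted after 48 h compound exposure of G401 cells at up to 20 μM, 8- or 12-point 3-fold series.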
Background: An ELISA detects its analyte on a solid surface through an enzyme-linked reagent.

One may read the IC50 as the concentration that gives 50% inhibition.

The structures appear in SMILES notation.

T1 sequence (O75530 whole entry): as the sequence (O75530 whole entry) above

With `COc1cccc(F)c1CNc1ccc(-c2ccc(CCC(=O)N(C)C)nc2)c2nncn12` [Example 234, 3-(5-(5-((2-fluoro-6-methoxybenzyl)amino)-[1,2,4]triazolo[4,3-a]pyridin-8-yl)pyridin-2-yl)-N,N-dimethyl propanamide], the IC50 stood at 35 nM on EED (1-441)-His protein, 149 nM in experiment [1] and 26.3 nM in experiment [2].

For `COc1cc(F)cc(F)c1CNc1ccc(-c2ccc(S(C)(=O)=O)cc2)c2nncn12` [Example 235, N-(2,4-difluoro-6-methoxybenzyl)-8-(4-(methylsulfonyl)phenyl)-[1,2,4]triazolo[4,3-a]pyridin-5-amine], the IC50 on EED (1-441)-His protein worked out at 68.7 nM; in experiment [1] it was 107 nM; in experiment [2], 138 nM.

With `COc1cccc(F)c1CNc1ccc(-c2cnccc2Cl)c2nncn12` [Example 236, 8-(4-chloropyridin-3-yl)-N-(2-fluoro-6-methoxybenzyl)-[1,2,4]triazolo[4,3-a]pyridin-5-amine], the IC50 was determined as 83.6 nM at EED (1-441)-His protein, 116 nM in experiment [1] and 66.3 nM in experiment [2].

On to `COc1cccc(F)c1CNc1ccc(-c2cccnc2C(F)(F)F)c2nncn12` [Example 237, N-(2-fluoro-6-methoxybenzyl)-8-(2-(trifluoromethyl)pyridin-3-yl)-[1,2,4]triazolo[4,3-a] pyridin-5-amine], for which the results for the IC50 (on EED (1-441)-His protein; in experiment [1]; in experiment [2]) were 86.9 nM, 116 nM and 116 nM, respectively.

Turning to `COc1cccc(F)c1CNc1ccc(-c2ccccc2CO)c2nncn12` [Example 238, (2-(5-((2-fluoro-6-methoxy benzyl)amino)-[1,2,4]triazolo[4,3-a]pyridin-8-yl)phenyl)methanol], the IC50 on EED (1-441)-His protein stood at 74.5 nM; in experiment [1], 153 nM; in experiment [2] it was 85.3 nM.

`COc1cc(F)cc(F)c1CNc1ccc(-c2cccnc2C)c2nncn12` [Example 239, N-(2,4-difluoro-6-methoxybenzyl)-8-(2-methylpyridin-3-yl)-[1,2,4]triazolo[4,3-a]pyridin-5-amine]: the figures for the IC50 (on EED (1-441)-His protein; in experiment [1]; in experiment [2]) were 24.6 nM, 39.6 nM and 20 nM, respectively.

As for `COc1cc(F)cc(F)c1CNc1ccc(-c2cnc(S(C)(=O)=O)cc2C)c2nncn12` [Example 240, N-(2,4-difluoro-6-methoxybenzyl)-8-(4-methyl-6-(methylsulfonyl)pyridin-3-yl)-[1,2,4]triazolo[4,3-a] pyridin-5-amine], the IC50 on EED (1-441)-His protein came out at 52.1 nM; in experiment [1] it was 53.4 nM; in experiment [2], 29.5 nM.

Turning to `COc1cc(F)cc(F)c1CNc1ccc(-c2ccc(S(C)(=O)=O)nc2C)c2nncn12` [Example 241, N-(2,4-difluoro-6-methoxybenzyl)-8-(2-methyl-6-(methylsulfonyl)pyridin-3-yl)-[1,2,4]triazolo[4,3-a] pyridin-5-amine], the IC50 at EED (1-441)-His protein was found to be 16.2 nM; in experiment [1], 56.2 nM; in experiment [2] it was 12.6 nM.

Take `COc1cccc(F)c1CNc1ccc(-c2c(C)nn(C(C)C)c2C)c2nncn12` [Example 245, N-(2-fluoro-6-methoxybenzyl)-8-(1-isopropyl-3,5-dimethyl-1H-pyrazol-4-yl)-[1,2,4]triazolo[4,3-a]pyridin-5-amine]: the IC50 on EED (1-441)-His protein was 14.6 nM; in experiment [1] it was 27.7 nM; in experiment [2], 8.2 nM.

For `COC(=O)N1CCC(n2cc(-c3ccc(NCc4c(F)cccc4OC)n4cnnc34)cn2)CC1` [Example 246, methyl 4-(4-(5-((2-fluoro-6-methoxybenzyl)amino)-[1,2,4]triazolo[4,3-a]pyridin-8-yl)-1H-pyrazol-1-yl) piperidine-1-carboxylate], the IC50 at EED (1-441)-His protein came to 68.9 nM; in experiment [1], 106 nM; in experiment [2], 242 nM.

As to `COc1cccc(F)c1CNc1ccc(-c2cn(C)nc2C(F)(F)F)c2nncn12` [Example 247, N-(2-fluoro-6-methoxybenzyl)-8-(1-methyl-3-(trifluoromethyl)-1H-pyrazol-4-yl)-[1,2,4]triazolo[4,3-a] pyridin-5-amine], the IC50 at EED (1-441)-His protein came out at 35.8 nM; in experiment [1] it was 700 nM; in experiment [2], 42.7 nM.

For `COc1cccc(F)c1CNc1ccc(-c2cnc(F)cc2C)c2nncn12` [Example 248, 8-(6-fluoro-4-methylpyridin-3-yl)-N-(2-fluoro-6-methoxybenzyl)-[1,2,4]triazolo[4,3-a] pyridin-5-amine], the values for the IC50 (at EED (1-441)-His protein; in experiment [1]; in experiment [2]) were 16.5 nM, 81.8 nM and 9.6 nM, respectively.

Regarding `COc1cccc(F)c1CNc1ccc(-c2ccc(C)nc2C)c2nncn12` [Example 249, 8-(2,6-dimethylpyridin-3-yl)-N-(2-fluoro-6-methoxybenzyl)-[1,2,4]triazolo[4,3-a] pyridin-5-amine], the IC50 on EED (1-441)-His protein came to 22.7 nM; in experiment [1], 41.9 nM; in experiment [2] it was 12.4 nM.

Turning to `COc1cccc(F)c1CNc1ccc(-c2ccc(C#N)nc2C)c2nncn12` [Example 250, 5-(5-((2-fluoro-6-methoxybenzyl)amino)-[1,2,4]triazolo[4,3-a]pyridin-8-yl)-6-methylpicolinonitrile], the IC50 stood at 14.3 nM at EED (1-441)-His protein, 20.2 nM in experiment [1] and 6.5 nM in experiment [2].

Regarding `COc1cccc(F)c1CNc1ccc(-c2cnc(C#N)cc2C)c2nncn12` [Example 251, 5-(5-((2-fluoro-6-methoxybenzyl)amino)-[1,2,4]triazolo[4,3-a]pyridin-8-yl)-4-methylpicolinonitrile], the values for the IC50 (at EED (1-441)-His protein; in experiment [1]; in experiment [2]) were 15.7 nM, 41.8 nM and 8.6 nM, respectively.

Regarding `COc1cccc(F)c1CNc1ccc(-c2cnc(C(=O)N(C)C)cc2C)c2nncn12` [Example 252, 5-(5-((2-fluoro-6-methoxybenzyl)amino)-[1,2,4]triazolo[4,3-a]pyridin-8-yl)-N,N,4-trimethylpicolinamide], the results for the IC50 (at EED (1-441)-His protein; in experiment [1]; in experiment [2]) were 14.1 nM, 7.9 nM and 4.4 nM, respectively.

`COc1cc(F)cc(F)c1CNc1ccc(-c2cnccc2C)c2nncn12` [Example 253, N-(2,4-difluoro-6-methoxybenzyl)-8-(4-methylpyridin-3-yl)-[1,2,4]triazolo[4,3-a] pyridin-5-amine]: the results for the IC50 (on EED (1-441)-His protein; in experiment [1]; in experiment [2]) were 66.2 nM, 289 nM and 59.2 nM, respectively.

Consider `COc1cccc(F)c1CNc1ccc(-c2ccc(CNC(C)=O)nc2)c2nncn12` [Example 256, N-((5-(5-((2-fluoro-6-methoxybenzyl)amino)-[1,2,4]triazolo[4,3-a]pyridin-8-yl)pyridin-2-yl)methyl) acetamide], for which the results for the IC50 (on EED (1-441)-His protein; in experiment [1]; in experiment [2]) were 25.1 nM, 159 nM and 10.4 nM, respectively.

For the compound `COc1cccc(F)c1CNc1ccc(-c2cnccc2C(F)F)c2nncn12` [Example 258, 8-(4-(difluoromethyl)pyridin-3-yl)-N-(2-fluoro-6-methoxybenzyl)-[1,2,4] triazolo [4,3-a]pyridin-5-amine], the IC50 on EED (1-441)-His protein was found to be 24.5 nM; in experiment [1], 71.6 nM; in experiment [2], 16.7 nM.

Take `COc1cccc(F)c1CNc1ccc(-c2cnc(N(C)C)nc2C)c2nncn12` [Example 260, 8-(2-(dimethylamino)-4-methylpyrimidin-5-yl)-N-(2-fluoro-6-methoxybenzyl)-[1,2,4]triazolo[4,3-a]pyridin-5-amine]: the IC50 came to 35.4 nM at EED (1-441)-His protein, 45.9 nM in experiment [1] and 21.7 nM in experiment [2].

These data come from US10689378B2, “Triazolopyridine compounds and uses thereof” (Novartis AG, priority 2016, dated 2020).
